Legend:
[1] = tested on: P. falciparum stage V male gametocytes (male gamete formation); experiment: P. falciparum dual gamete formation assay (Pf DGFA), male readout (exflagellation), 48 h carry-over format; type: cell-based, Plasmodium falciparum NF54; settings: Plasmodium falciparum, 48 h incubation
[2] = tested on: P. falciparum stage V female gametocytes (female gamete formation); experiment: P. falciparum dual gamete formation assay (Pf DGFA), female readout (Pfs25 expression), 48 h carry-over format; type: cell-based, Plasmodium falciparum NF54; settings: Plasmodium falciparum, 48 h incubation
[3] = tested on: P. falciparum 3D7 asexual blood stages; experiment: Whole-cell time extended asexual growth assay (pLDH); type: cell-based; settings: Plasmodium falciparum, 72 h
Protocol: Asexual activity was assayed via Plasmodium lactate dehydrogenase activity (pLDH), a surrogate of asexual parasite growth. […] 2 µM artesunate and DMSO were used as the positive and negative controls, respectively. […] After plate mixing, NBT reduction was measured by absorbance at 650 nm using Envision (Perkin Elmer).

HepG2 human cells = tested on: HepG2 human cells; set-up: method as in http://dx.doi.org/10.6019/CHEMBL3507680; settings: ref http://dx.doi.org/10.6019/CHEMBL3507680; cited from earlier work
[4] = primary screen, 2 uM, single replicate

IC50 ([1]; 48 h, dose response retest of primary hits, read-out: Male IC50): 1120 nM
IC50 ([2]; 48 h, dose response retest of primary hits, read-out: Female IC50): 3620 nM
IC50 ([3]; dose response retest, read-out: IC50 (µM) Asex stages): 1.73 µM
SMILES: NCC1CCN(C2CCN(c3ccc(-c4ccco4)cc3)CC2)C1 (stereo not shown) [DDD01252361]
inhibition at 2 µM [1, 4]: 94.8%
inhibition at 2 µM [2, 4]: 64%
inhibition at 2 µM ([3]; primary screen, 2 uM, read-out: %Inh Asex stages @2uM): 68.3%
%Inh HepG2 @10uM (HepG2 human cells): 101.96%
